In US20060069132A1, “Azolecarboxamide herbicides” (priority 2004, published 2006):

Tests used:
[1] = system: barnyardgrass; experiment: Test B flooded paddy test; assay type: in vivo, Echinochloa crus-galli; conditions: 1000 g ai/ha, scale 0 to 100 (0 no effect, 100 complete control)
Outline: (§1)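 Visual ratings, 0 (no effect) to 100 (complete control), made versus controls after 13–15 d greenhouse. Paddy plants treated at 2-leaf stage; postemergence plants at 1- to 4-leaf stage, 2–18 cm tall.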

[2] = system: barnyardgrass; experiment: Test C flooded paddy test; assay type: in vivo, Echinochloa crus-galli; conditions: for Plant response rating, Barnyardgrass: 500 g ai/ha, visual rating after 12 to 14 days
Outline: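 Visual rating, 0 (no effect) to 100 (complete control), vs. controls at 12–14 d in greenhouse. Postemergence: 1–4-leaf plants, 2–18 cm. Paddy: flooded, barnyardgrass at 2-leaf stage.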

[3] = system: lambsquarters; experiment: Test B pre-/postemergence herbicide test; assay type: in vivo, Chenopodium album; conditions: for Lambsquarters plant response rating: postemergence
Outline: (§2)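 Seeds were planted and treated preemergence with compounds formulated in a non-phytotoxic solvent mixture containing surfactant, while plants at the 1- to 4-leaf stage (2 to 18 cm) received postemergence sprays. Flooded paddy plants were grown to the 2-leaf stage. After 13 to 15 days in a greenhouse, injury was visually rated 0–100 against untreated controls.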

[4] = system: wheat; experiment: Test B postemergence herbicide test; assay type: in vivo, Triticum aestivum; parameters: key to Wheat plant response rating: 0 = no effect, 100 = complete control; conditions: postemergence
Outline: (§3)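 Plants grow to 1- to 4-leaf stage (2–18 cm) for postemergence spraying, or to 2-leaf stage for the paddy test. Formulated compound is applied. Greenhouse holding lasts 13–15 days. Response is scored visually relative to controls, 0 no effect to 100 complete control; a dash means no result.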

[5] = system: morningglory; experiment: Test B pre-/postemergence herbicide test; assay type: in vivo, Ipomoea coccinea; conditions: for Morningglory plant response rating: postemergence
Outline: (§4)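 Visual rating, 0 (no effect) to 100 (complete control), versus untreated controls after 13–15 d in greenhouse. Pre- and postemergence applications (postemergence plants 2–18 cm, 1–4 leaves); flooded paddy arm at 2-leaf stage. Compounds in non-phytotoxic solvent plus surfactant.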

[6] = system: wild oat; experiment: Test B postemergence herbicide test; assay type: in vivo, Avena fatua; conditions: postemergence
Outline: as §3

[7] = system: rice; experiment: Test C flooded paddy test; assay type: in vivo, Oryza sativa; conditions: for Plant response rating, Rice: 500 g ai/ha, visual rating after 12 to 14 days
Outline: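 Postemergence sprays applied to plants 2 to 18 cm tall (1- to 4-leaf stage); paddy species grown to 2-leaf stage under flooding. After 12 to 14 days in greenhouse, visual rating versus untreated controls on 0–100 scale (0 no effect, 100 complete control).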

[8] = system: small flower umbrella sedge; experiment: Test B flooded paddy test; assay type: in vivo, Cyperus difformis; conditions: 1000 g ai/ha, scale 0 to 100 (0 no effect, 100 complete control)
Outline: as §1

[9] = system: Surinam grass; experiment: Test B pre-/postemergence herbicide test; assay type: in vivo, Urochloa decumbens; conditions: for Surinam Grass plant response rating: postemergence
Outline: as §2

[10] = system: rice; experiment: Test B pre-/postemergence herbicide test; assay type: in vivo, Oryza sativa; conditions: preemergence
Outline: as §2

[11] = system: large crabgrass; experiment: Test B pre-/postemergence herbicide test; assay type: in vivo, Digitaria sanguinalis; conditions: for Crabgrass, Large plant response rating: postemergence
Outline: as §2

[12] = system: blackgrass; experiment: Test B postemergence herbicide test; assay type: in vivo, Alopecurus myosuroides; conditions: postemergence
Outline: as §1

[13] = system: giant foxtail; experiment: Test B pre-/postemergence herbicide test; assay type: in vivo, Setaria faberi; conditions: for Foxtail, Giant plant response rating: postemergence
Outline: as §2

[14] = system: ducksalad; experiment: Test B flooded paddy test; assay type: in vivo, Heteranthera limosa; conditions: 1000 g ai/ha, scale 0 to 100 (0 no effect, 100 complete control)
Outline: as §1

[15] = system: smallflower umbrella sedge; experiment: Test C flooded paddy test; assay type: in vivo, Cyperus difformis; conditions: for Plant response rating, Sedge, Umbrella: 500 g ai/ha, visual rating after 12 to 14 days
[16] = system: velvetleaf; experiment: Test B pre-/postemergence herbicide test; assay type: in vivo, Abutilon theophrasti; conditions: for Velvetleaf plant response rating: postemergence
Outline: as §2

[17] = system: pigweed; experiment: Test B pre-/postemergence herbicide test; assay type: in vivo, Amaranthus retroflexus; conditions: for Pigweed plant response rating: postemergence
Outline: as §2

[18] = system: cocklebur; experiment: Test B pre-/postemergence herbicide test; assay type: in vivo, Xanthium strumarium; conditions: for Cocklebur plant response rating: postemergence
Outline: as §4

[19] = system: ducksalad; experiment: Test C flooded paddy test; assay type: in vivo, Heteranthera limosa; conditions: for Plant response rating, Ducksalad: 500 g ai/ha, visual rating after 12 to 14 days
[20] = system: rice; experiment: Test B flooded paddy test; assay type: in vivo, Oryza sativa; conditions: 1000 g ai/ha, scale 0 to 100 (0 no effect, 100 complete control)
Outline: as §1

[21] = system: barnyardgrass; experiment: Test B pre-/postemergence herbicide test; assay type: in vivo, Echinochloa crus-galli; conditions: for Barnyardgrass plant response rating: postemergence
Outline: as §4

[22] = system: corn; experiment: Test B pre-/postemergence herbicide test; assay type: in vivo, Zea mays; conditions: for Corn plant response rating: postemergence
Outline: as §2

[23] = 62 g ai/ha, scale 0 to 100 (0 no effect, 100 complete control)
[24] = 250 g ai/ha, scale of 0 to 100, 0 is no effect, 100 is complete control
[25] = scale 0 to 100 (0 no effect, 100 complete control)
[26] = 500 g ai/ha, visual rating 0-100, 0 no effect, 100 complete control, preemergence
[27] = 125 g ai/ha, visual rating, scale 0 (no effect) to 100 (complete control)
[28] = 500 g ai/ha, visual rating, scale 0 (no effect) to 100 (complete control)
[29] = preemergence, 125 g ai/ha, 0 to 100 scale, 0 is no effect, 100 is complete control
[30] = 125 g ai/ha, scale 0 to 100 (0 no effect, 100 complete control)
[31] = 125 g ai/ha, 0 = no effect, 100 = complete control, preemergence
[32] = 500 g ai/ha, visual rating, 0 = no effect, 100 = complete control, preemergence
[33] = 500 g ai/ha, scale 0 to 100, 0 is no effect, 100 is complete control

CCn1nc(C(C)(C)C)cc1C(=O)Nc1cc(C(=O)N2CC=CC2)ccn1 [Compound 142]
Barnyardgrass plant response rating ([1]; visual rating, 13 to 15 days): 90
Barnyardgrass plant response rating [2, 23]: 50
Barnyardgrass plant response rating ([2]; 125 g ai/ha, scale of 0 to 100, 0 is no effect, 100 is complete control): 65
Barnyardgrass plant response rating [2, 24]: 80
Plant response rating, Barnyardgrass [2, 25]: 90
Plant response rating, Lambsquarters [3, 26]: 100
Lambsquarters plant response rating [3, 27]: 60
Lambsquarters plant response rating [3, 28]: 80
Plant response rating, Lambsquarters [3, 29]: 100
Wheat plant response rating [4, 28]: 10
Plant response rating, Morningglory [5, 26]: 30
Morningglory plant response rating [5, 27]: 0
Morningglory plant response rating [5, 28]: 50
Oat, Wild plant response rating [6, 27]: 20
Oat, Wild plant response rating [6, 28]: 20
Rice plant response rating [7, 23]: 70
Rice plant response rating [7, 30]: 70
Rice plant response rating [7, 24]: 70
Plant response rating, Rice [7, 25]: 70
Sedge, Umbrella plant response rating ([8]; visual rating, 13 to 15 days): 80
Plant response rating, Surinam Grass [9, 26]: 60
Surinam Grass plant response rating [9, 27]: 10
Surinam Grass plant response rating [9, 28]: 20
Plant response rating, Surinam Grass [9, 29]: 10
Plant response rating, Rice ([10]; 500 g ai/ha, visual rating 0-100, 0 no effect, 100 complete control): 80
Plant response rating, Rice ([10]; 125 g ai/ha, 0 to 100 scale, 0 is no effect, 100 is complete control): 30
Plant response rating, Crabgrass, Large [11, 26]: 100
Crabgrass, Large plant response rating [11, 27]: 0
Crabgrass, Large plant response rating [11, 28]: 10
Plant response rating, Crabgrass, Large [11, 29]: 80
Blackgrass plant response rating [12, 27]: 40
Blackgrass plant response rating [12, 28]: 40
Plant response rating, Foxtail, Giant [13, 26]: 100
Foxtail, Giant plant response rating [13, 27]: 30
Foxtail, Giant plant response rating [13, 28]: 30
Plant response rating, Foxtail, Giant [13, 29]: 60
Ducksalad plant response rating ([14]; visual rating, 13 to 15 days): 90
Sedge, Umbrella plant response rating [15, 23]: 75
Sedge, Umbrella plant response rating [15, 30]: 80
Sedge, Umbrella plant response rating [15, 24]: 80
Plant response rating, Sedge, Umbrella [15, 25]: 90
Plant response rating, Velvetleaf [16, 26]: 100
Velvetleaf plant response rating [16, 27]: 10
Velvetleaf plant response rating [16, 28]: 60
Plant response rating, Velvetleaf [16, 29]: 80
Plant response rating, Pigweed [17, 26]: 100
Pigweed plant response rating [17, 27]: 50
Pigweed plant response rating [17, 28]: 60
Plant response rating, Pigweed [17, 29]: 100
Plant response rating, Cocklebur [18, 26]: 40
Cocklebur plant response rating [18, 27]: 40
Cocklebur plant response rating [18, 28]: 40
Plant response rating, Cocklebur [18, 29]: 30
Ducksalad plant response rating [19, 23]: 75
Ducksalad plant response rating [19, 30]: 90
Ducksalad plant response rating [19, 24]: 95
Plant response rating, Ducksalad [19, 25]: 100
Rice plant response rating ([20]; visual rating, 13 to 15 days): 70
Plant response rating, Barnyardgrass [21, 26]: 100
Barnyardgrass plant response rating [21, 27]: 0
Barnyardgrass plant response rating [21, 28]: 10
Plant response rating, Barnyardgrass [21, 29]: 70
Plant response rating, Corn [22, 26]: 0
Corn plant response rating [22, 27]: 0
Corn plant response rating [22, 28]: 0
Plant response rating, Corn [22, 29]: 0

CCn1nc(C(C)(C)C)c(F)c1C(=O)Nc1cccc(C(=O)N(C)C)n1 [Compound 274]
Barnyardgrass plant response rating [1]: 70
Barnyardgrass plant response rating [2, 23]: 0
Barnyardgrass plant response rating [2, 30]: 10
Barnyardgrass plant response rating [2, 24]: 30
Plant response rating, Barnyardgrass [2, 25]: 60
Lambsquarters plant response rating (0 to 100 scale) [3, 31]: 70
Plant response rating, Lambsquarters [3, 32]: 100
Lambsquarters plant response rating [3, 27]: 40
Lambsquarters plant response rating [3, 33]: 70
Wheat plant response rating [4, 27]: 20
Wheat plant response rating [4, 33]: 20
Morningglory plant response rating (0 to 100 scale) [5, 31]: 0
Plant response rating, Morningglory [5, 32]: 10
Morningglory plant response rating [5, 27]: 0
Morningglory plant response rating [5, 33]: 60
Oat, Wild plant response rating [6, 27]: 20
Oat, Wild plant response rating [6, 33]: 40
Rice plant response rating ([7]; 62 g ai/ha, scale 0 to 100): 0
Rice plant response rating [7, 30]: 0
Rice plant response rating [7, 24]: 15
Plant response rating, Rice [7, 25]: 45
Sedge, Umbrella plant response rating [8]: 80
Surinam Grass plant response rating (0 to 100 scale) [9, 31]: 50
Plant response rating, Surinam Grass [9, 32]: 80
Surinam Grass plant response rating [9, 27]: 20
Surinam Grass plant response rating [9, 33]: 30
Rice plant response rating (0 to 100 scale) ([10]; 125 g ai/ha, 0 = no effect, 100 = complete control): 30
Plant response rating, Rice ([10]; 500 g ai/ha, visual rating, 0 = no effect, 100 = complete control): 80
Crabgrass, Large plant response rating (0 to 100 scale) [11, 31]: 10
Plant response rating, Crabgrass, Large [11, 32]: 100
Crabgrass, Large plant response rating [11, 27]: 0
Crabgrass, Large plant response rating [11, 33]: 0
Blackgrass plant response rating [12, 27]: 30
Blackgrass plant response rating [12, 33]: 30
Foxtail, Giant plant response rating (0 to 100 scale) [13, 31]: 10
Plant response rating, Foxtail, Giant [13, 32]: 90
Foxtail, Giant plant response rating [13, 27]: 20
Foxtail, Giant plant response rating [13, 33]: 50
Ducksalad plant response rating [14]: 70
Sedge, Umbrella plant response rating ([15]; 62 g ai/ha, scale 0 to 100): 0
Sedge, Umbrella plant response rating [15, 30]: 50
Sedge, Umbrella plant response rating [15, 24]: 70
Plant response rating, Sedge, Umbrella [15, 25]: 75
Velvetleaf plant response rating (0 to 100 scale) [16, 31]: 20
Plant response rating, Velvetleaf [16, 32]: 70
Velvetleaf plant response rating [16, 27]: 10
Velvetleaf plant response rating [16, 33]: 10
Pigweed plant response rating (0 to 100 scale) [17, 31]: 30
Plant response rating, Pigweed [17, 32]: 100
Pigweed plant response rating [17, 27]: 40
Pigweed plant response rating [17, 33]: 60
Cocklebur plant response rating (0 to 100 scale) [18, 31]: 0
Plant response rating, Cocklebur [18, 32]: 0
Cocklebur plant response rating [18, 27]: 0
Cocklebur plant response rating [18, 33]: 10
Ducksalad plant response rating ([19]; 62 g ai/ha, scale 0 to 100): 0
Ducksalad plant response rating [19, 30]: 0
Ducksalad plant response rating [19, 24]: 0
Plant response rating, Ducksalad [19, 25]: 20
Rice plant response rating [20]: 60
Barnyardgrass plant response rating (0 to 100 scale) [21, 31]: 60
Plant response rating, Barnyardgrass [21, 32]: 100
Barnyardgrass plant response rating [21, 27]: 0
Barnyardgrass plant response rating [21, 33]: 10
Corn plant response rating (0 to 100 scale) [22, 31]: 0
Plant response rating, Corn [22, 32]: 80
Corn plant response rating [22, 27]: 0
Corn plant response rating [22, 33]: 20
